According to ChEMBL document CHEMBL4402604, “Discovery and Structure-Activity Relationship Study of (Z)-5-Methylenethiazolidin-4-one Derivatives as Potent and Selective Pan-phosphatidylinositol 5-Phosphate 4-Kinase Inhibitors” (J Med Chem, 2020):
Activity calls are given as the source filed them. The calls are words filed in the database; no cut-off is given here.

Assays:
[1] = Lipophilicity, logD of the compound; format: physicochemical; details: octanol/water
[2] = Stability in rat liver microsomes at 1 uM in presence of NADPH regeneration system incubated for 15 mins by LC-MS analysis; format: ADME, Microsome
[3] = Permeability of the compound by PAMPA method; format: ADME
[4] = target: Activin receptor type-2A (Homo sapiens) (UniProt P27037); assay: Inhibition of human ACVR2A expressed in baculovirus expression system
Chain of Activin receptor type-2A (Homo sapiens) (P27037 whole entry): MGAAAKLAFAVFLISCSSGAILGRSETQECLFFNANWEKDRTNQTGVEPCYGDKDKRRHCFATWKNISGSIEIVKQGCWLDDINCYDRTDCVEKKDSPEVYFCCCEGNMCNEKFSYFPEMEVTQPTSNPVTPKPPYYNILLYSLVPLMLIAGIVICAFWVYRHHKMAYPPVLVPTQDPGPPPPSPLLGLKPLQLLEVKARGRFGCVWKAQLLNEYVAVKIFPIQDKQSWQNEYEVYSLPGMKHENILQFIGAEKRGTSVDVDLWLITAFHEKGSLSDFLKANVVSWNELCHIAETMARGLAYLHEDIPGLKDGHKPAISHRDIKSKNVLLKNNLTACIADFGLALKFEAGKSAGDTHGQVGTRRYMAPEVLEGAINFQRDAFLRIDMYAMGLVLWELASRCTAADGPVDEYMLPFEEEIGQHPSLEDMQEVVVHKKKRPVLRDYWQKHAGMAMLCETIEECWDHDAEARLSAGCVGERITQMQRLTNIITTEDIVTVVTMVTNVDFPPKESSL

Row | Compound | logD [1] | further results
1 | CC(=O)Nc1ccc(-c2cncc(/C=C3\SC(=N)NC3=O)c2)cc1 | 1.5 | 
2 | COc1ccc(-c2cncc(/C=C3\SC(=N)NC3=O)c2)c2ccccc12 | 3.1 | 
3 | CS(=O)(=O)c1ccc(-c2cncc(/C=C3\SC(=N)NC3=O)c2)cc1 | 1.1 | 
4 | CS(=O)(=O)Nc1ccc(-c2cnc(N)c(/C=C3\SC(=N)NC3=O)c2)cc1 | 0.41 | 
5 | CNC(=O)Nc1ccc(-c2cncc(/C=C3\SC(=N)NC3=O)c2)cc1 | 1.4 | 
6 | CNS(=O)(=O)c1ccc(-c2cncc(/C=C3\SC(=N)NC3=O)c2)cc1 | 1.1 | 
7 | CN(C)c1ccc(-c2cncc(/C=C3\SC(=N)NC3=O)c2)cc1 | 2.4 | 
8 | CS(=O)(=O)Nc1ccc(-c2cc(/C=C3\SC(=N)NC3=O)cnc2N)cc1 | 0.41 | permeability [3]: Impermeable; Stability [2]: Stable
9 | N=C1NC(=O)/C(=C/c2cncc(-c3ccc(OC(F)(F)F)cc3)c2)S1 | 3.7 | 
10 | CC(=O)Nc1cccc(-c2cncc(/C=C3\SC(=N)NC3=O)c2)c1 | 1.5 | 

The next lines start with results.

Row | logD [1] | Compound | further results
11 | -0.05 | CS(=O)(=O)Nc1ccc(-c2cncc(/C=C3\SC(=O)NC3=O)c2)cc1 | Stability [2]: Stable
12 | 0.66 | CS(=O)(=O)Nc1ccc(-c2cncc(/C=C3\SC(=N)NC3=O)c2)cc1 | permeability [3]: Impermeable; Stability [2]: Stable
13 | 2.5 | CS(=O)(=O)Nc1ccc(-c2cncc(-c3ccc4cc[nH]c4c3)c2)cc1 | 
14 | 1.5 | CS(=O)(=O)Nc1ccc(-c2cncc(-c3cccc4c3CC(=O)N4)c2)cc1 | 
15 | -0.14 | CS(=O)(=O)Nc1ccc(-c2cncc(/C=C3\CC(=O)NC3=O)c2)cc1 | 
16 | 1.5 | CC(=O)Nc1cccc(Oc2cncc(-c3ccc(NS(C)(=O)=O)cc3)c2)c1 | 
17 | 2.5 | CS(=O)(=O)Nc1ccc(-c2cncc(-c3ccc4[nH]ccc4c3)c2)cc1 | 
18 | 1.5 | CC(=O)Nc1cccc(Nc2cncc(-c3ccc(NS(C)(=O)=O)cc3)c2)c1 | 
19 | 1.7 | CC(=O)Nc1cccc(-c2cncc(-c3ccc(NS(C)(=O)=O)cc3)c2)c1 | 
20 | -1 | CS(=O)(=O)Nc1ccc(-c2cncc(/C=C3\OC(=O)NC3=O)c2)cc1 | 
21 | 1.6 | CNC(=O)Nc1ccc(-c2cncc(-c3ccc(NS(C)(=O)=O)cc3)c2)cc1 | 
22 | 2.5 | CS(=O)(=O)Nc1ccc(-c2cncc(-c3cccc4[nH]ccc34)c2)cc1 | inhibition [4]: Active; permeability [3]: Permeable; Stability [2]: Stable
